Results on 4 molecules are retold here after ChEMBL document CHEMBL1201862, “PubChem BioAssay data set” (2004).

The source made the active and inactive calls. Bounds are passed on as bounds.

The nature of experiment [1]: Luminescence Cell-Based Dose Response HTS to Identify Activators of Luciferase Translation or Activity in H4-C Neuroglioblastoma Cells. [Related pubchem assays: 1829 (Project Summary), 1814 (Primary HTS)]. The class given is functional.
The nature of experiment [2]: Trypanosoma cruzi growth suppression in host cells – NIH3T3 host cells, beta-gal luminescence, confirmation (AID 2044).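 Further: intracellular parasites grown in NIH/3T3 mouse fibroblasts as host cells; luminescent beta-galactosidase reporter signal from transgenic T. cruzi replicating inside host cells; inhibitors lower the luminescence signal.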 It is filed as functional, cell-based.
Experiment [3] in a line: Luminescence Cell-Based Dose Confirmation HTS to Identify Activators of 5'UTR Stem-Loop Driven Alpha-Synuclein mRNA Translation in H4 Neuroglioblastoma Cells. [Related pubchem assays: 1829 (Project Summary), 1814 (Primary HTS)]. The class given is functional.
The next experiment concerns H4. Nature of the experiment: Luminescence Cell-Based Dose Response HTS to Identify Activators of 5'UTR Stem-Loop Driven Prion Protein mRNA Translation in H4 Neuroglioblastoma Cells. [Related pubchem assays: 1829 (Project Summary), 1814 (Primary HTS)]. It is filed as functional. The following applies: Homo sapiens.
Experiment [4] deals with Streptococcus sp. 'group A'. Nature of the experiment: Streptococcus pyogenes SK(-)GAS viability under kanamycin – luminescence, BacTiterGlo, confirmation, counter-screen for streptokinase expression inhibitor project, dose response (AID 1900). The conditions noted are these: Streptococcus sp. 'group A'. The class given is functional, organism-based. Background: A counterscreen serves to expose hits that act by an unwanted route or on another target.

The subject of a further experiment is Streptococcus. Nature of the experiment: GAS UMAA2166 growth inhibition – luminescence, BacTiterGlo, counter-screen for streptokinase expression inhibitor project, dose response (AID 1915).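 Further: potency for reduction of bacterial viability or growth.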 The conditions noted are these: Streptococcus. It is filed as functional, organism-based.
A further experiment addresses T1, Streptokinase A (Streptococcus pyogenes serotype M1, UniProt P10520).
T1 sequence (P10520 whole entry): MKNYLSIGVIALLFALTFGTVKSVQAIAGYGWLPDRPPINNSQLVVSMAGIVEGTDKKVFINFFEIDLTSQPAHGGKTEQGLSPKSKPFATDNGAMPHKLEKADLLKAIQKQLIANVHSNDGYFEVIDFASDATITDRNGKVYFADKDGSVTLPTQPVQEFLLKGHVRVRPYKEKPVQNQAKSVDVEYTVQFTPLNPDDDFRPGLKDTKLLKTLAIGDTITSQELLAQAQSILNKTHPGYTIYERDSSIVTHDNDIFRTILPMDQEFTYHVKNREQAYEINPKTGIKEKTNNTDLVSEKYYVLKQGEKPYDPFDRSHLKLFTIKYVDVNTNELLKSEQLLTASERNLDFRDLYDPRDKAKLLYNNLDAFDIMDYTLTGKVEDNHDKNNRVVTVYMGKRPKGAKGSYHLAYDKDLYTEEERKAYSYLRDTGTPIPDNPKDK
Nature of the experiment: viability-normalized secreted streptokinase activity reduction – plasminogen activation absorbance, OD405, dose response (AID 1914).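 Further: secreted streptokinase activity via plasminogen activation per viability signal from cell pellet.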 The class given is functional, Streptococcus pyogenes M1 GAS.

Experiment [5] has as its target T2, Small ubiquitin-related modifier 2 (Homo sapiens, UniProt P61956). The experiment is described as follows: disruption of SUMO2 interaction with SIM peptide – biochemical, fluorescence polarization, uHTS hits, selectivity assay for SUMO1 interaction inhibitor project, dose response (AID 624385). It is filed as functional. The conditions noted are these: read-out: IC50_Mean. (Fluorescence polarisation rises when a labelled molecule tumbles more slowly, as on binding a larger partner.)

Experiment [6] concerns the target T2, Small ubiquitin-related modifier 2. The experiment is described as follows: SUMO2 binding disruption by SUMO1 hits – biochemical, FRET, human SUMO2, uHTS hits, selectivity assay for SUMO1 interaction inhibitor project, dose response (AID 624384). It is filed as functional. The conditions noted are these: read-out: IC50_Mean.
For experiment [7], the target named is T3, Bifunctional protein GlmU (Mycobacterium tuberculosis, UniProt P9WMN3).
T3 sequence (P9WMN3 whole entry): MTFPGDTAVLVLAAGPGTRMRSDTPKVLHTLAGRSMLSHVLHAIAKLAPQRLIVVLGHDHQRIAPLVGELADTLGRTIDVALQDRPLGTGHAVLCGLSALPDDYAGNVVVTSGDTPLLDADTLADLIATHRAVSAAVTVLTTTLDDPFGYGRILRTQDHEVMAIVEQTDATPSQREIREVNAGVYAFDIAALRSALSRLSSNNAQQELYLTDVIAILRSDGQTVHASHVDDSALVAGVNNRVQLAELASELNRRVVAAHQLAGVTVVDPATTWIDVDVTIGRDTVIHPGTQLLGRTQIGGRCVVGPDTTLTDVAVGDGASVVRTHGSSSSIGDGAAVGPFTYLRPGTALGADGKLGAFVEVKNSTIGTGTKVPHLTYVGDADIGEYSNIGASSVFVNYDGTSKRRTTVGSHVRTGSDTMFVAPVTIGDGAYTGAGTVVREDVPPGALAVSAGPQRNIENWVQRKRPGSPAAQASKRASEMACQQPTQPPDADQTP
Nature of the experiment: Inhibitors of Mycobacterial Glucosamine-1-phosphate acetyl transferase (GlmU). Secondary screen. Also noted: species or system Mycobacterium tuberculosis H37Rv.

Experiment [8] concerns the target T4, Sentrin-specific protease 8 (Homo sapiens, UniProt Q96LD8).
T4 sequence (Q96LD8 whole entry): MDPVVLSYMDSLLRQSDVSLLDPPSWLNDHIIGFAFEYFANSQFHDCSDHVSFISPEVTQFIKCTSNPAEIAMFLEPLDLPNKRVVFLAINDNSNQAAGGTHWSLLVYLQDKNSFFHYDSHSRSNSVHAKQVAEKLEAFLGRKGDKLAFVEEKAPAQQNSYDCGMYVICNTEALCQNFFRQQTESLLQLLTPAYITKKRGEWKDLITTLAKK
The class given is functional.

The target in experiment [9] is T4, Sentrin-specific protease 8. The experiment is described as follows: inhibition of human SENP8 cleavage activity – biochemical, luminescence, SAR follow-up (AID 504501). It is filed as functional.
Experiment [10] has the same target. It is filed as functional. The source holds these as a separate data set.

T2 sequence (P61956 whole entry): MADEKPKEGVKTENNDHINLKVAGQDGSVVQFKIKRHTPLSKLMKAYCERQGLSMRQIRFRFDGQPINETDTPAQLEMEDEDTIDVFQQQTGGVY

As usually defined, the EC50 is the concentration giving half of the maximal effect. As to `c1ccc2c(Nc3nnc(-c4ccncc4)s3)cccc2c1`, the EC50 in experiment [1] was 1.06 µM (active); in experiment [2] it was 1.59 µM (active); in [3], 0.196 µM (active); in the experiment with H4, 13.8 µM (active).
Regarding `N#Cc1c(O)nc(SCC(=O)N2c3ccccc3Sc3ccccc32)nc1-c1ccccc1`, the results for the EC50 (in [4]; in the experiment with Streptococcus; at Streptokinase A) were 5.6 µM (active), 13.9 µM (active) and > 150 µM (not active), respectively. Further, the results for the IC50 in experiment [5] and in experiment [6] were 10.9 µM (active) and 23.1 µM (inactive), respectively.
With `N=C1S/C(=C\c2ccc(-c3ccccc3C(=O)O)o2)C(=O)N1c1ccc2c(c1)OCO2`, the IC50 in [7] is 153 µM (active).
In the case of `COc1cc(C(=O)c2nccc3cc(OC)c(OC)cc23)c([N+](=O)[O-])cc1OC`, the values for the IC50 in experiment [8], in [9] and in [10] were 14.8 µM (active), > 99 µM (inactive) and 0.535 µM (active), respectively.
